Source: PubChem BioAssay (NCI)
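The compound was tested at five concentrations on cells cultured in 96-well plates, with a 48-hour exposure period. GI50 = concentration required for 50% inhibition of growth. The concentration for full growth arrest is given as TGI.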

Tests used:
Assay in all cases: NCI anticancer screen, dose series, 48 h
NCI/ADR-RES ovarian = system: NCI/ADR-RES ovarian
COLO 205 colon = system: COLO 205 colon
HL-60(TB) leukemia = system: HL-60(TB) leukemia
UACC-257 melanoma = system: UACC-257 melanoma
HOP-92 NSCLC = system: HOP-92 NSCLC
HOP-62 NSCLC = system: HOP-62 NSCLC
UO-31 renal = system: UO-31 renal
OVCAR-5 ovarian = system: OVCAR-5 ovarian
KM12 colon = system: KM12 colon
SN12C renal = system: SN12C renal
SK-MEL-2 melanoma = system: SK-MEL-2 melanoma
SF-268 CNS = system: SF-268 CNS
MDA-MB-435 = system: MDA-MB-435
M14 melanoma = system: M14 melanoma
MDA-MB-231 breast = system: MDA-MB-231 breast
K-562 leukemia = system: K-562 leukemia
SW-620 colon = system: SW-620 colon
HCT-15 colon = system: HCT-15 colon
CAKI-1 renal = system: CAKI-1 renal
MDA-N = system: MDA-N
PC-3 prostate = system: PC-3 prostate
SF-295 CNS = system: SF-295 CNS
NCI-H23 lung = system: NCI-H23 lung
SNB-19 CNS = system: SNB-19 CNS
T-47D breast = system: T-47D breast
ACHN renal = system: ACHN renal
RXF 393 renal = system: RXF 393 renal
DU-145 prostate = system: DU-145 prostate
U251 CNS = system: U251 CNS
786-0 renal = system: 786-0 renal
SF-539 CNS = system: SF-539 CNS
UACC-62 melanoma = system: UACC-62 melanoma
A498 renal = system: A498 renal
MCF7 breast = system: MCF7 breast
NCI-H226 lung = system: NCI-H226 lung
OVCAR-3 ovarian = system: OVCAR-3 ovarian
MOLT-4 leukemia = system: MOLT-4 leukemia
CCRF-CEM leukemia = system: CCRF-CEM leukemia
RPMI-8226 leukemia = system: RPMI-8226 leukemia
IGROV1 ovarian = system: IGROV1 ovarian
NCI-H460 lung = system: NCI-H460 lung
OVCAR-8 ovarian = system: OVCAR-8 ovarian
LOX IMVI melanoma = system: LOX IMVI melanoma
SK-OV-3 ovarian = system: SK-OV-3 ovarian
A549 NSCLC = system: A549 NSCLC
SR leukemia = system: SR leukemia
SK-MEL-5 melanoma = system: SK-MEL-5 melanoma
HS 578T breast = system: HS 578T breast
HCT-116 colon = system: HCT-116 colon
HCC-2998 colon = system: HCC-2998 colon
BT-549 breast = system: BT-549 breast
EKVX NSCLC = system: EKVX NSCLC
TK-10 renal = system: TK-10 renal
HT29 colon = system: HT29 colon
MALME-3M melanoma = system: MALME-3M melanoma
NCI-H522 lung = system: NCI-H522 lung
SK-MEL-28 melanoma = system: SK-MEL-28 melanoma
OVCAR-4 ovarian = system: OVCAR-4 ovarian
SNB-75 CNS = system: SNB-75 CNS

SMILES: O=c1oc2ccccc2c2c(=O)c3ccc(OC/C(=N/O)c4ccc(Cl)cc4)cc3oc12
- TGI (NCI/ADR-RES ovarian): 31.4 µM
- TGI (COLO 205 colon): 29.1 µM
- TGI (HL-60(TB) leukemia): 28.4 µM
- TGI (UACC-257 melanoma): > 100 µM
- TGI (HOP-92 NSCLC): 25.1 µM
- TGI (HOP-62 NSCLC): 31.5 µM
- TGI (UO-31 renal): 30.8 µM
- TGI (OVCAR-5 ovarian): 37 µM
- TGI (KM12 colon): 14 µM
- TGI (SN12C renal): 51.2 µM
- TGI (SK-MEL-2 melanoma): 24.1 µM
- TGI (SF-268 CNS): 41.8 µM
- TGI (MDA-MB-435): 7.89 µM
- TGI (M14 melanoma): 34 µM
- TGI (MDA-MB-231 breast): 43.2 µM
- TGI (K-562 leukemia): 12.1 µM
- TGI (SW-620 colon): 37 µM
- TGI (HCT-15 colon): 24.5 µM
- TGI (CAKI-1 renal): 24 µM
- TGI (MDA-N): 10.9 µM
- TGI (PC-3 prostate): 24.5 µM
- TGI (SF-295 CNS): 7.1 µM
- TGI (NCI-H23 lung): 45.1 µM
- TGI (SNB-19 CNS): 33.1 µM
- TGI (T-47D breast): 88.4 µM
- TGI (ACHN renal): 19.2 µM
- TGI (RXF 393 renal): 8.06 µM
- TGI (DU-145 prostate): 36.1 µM
- TGI (U251 CNS): 23.3 µM
- TGI (786-0 renal): 24.2 µM
- TGI (SF-539 CNS): 23.8 µM
- TGI (UACC-62 melanoma): 24.4 µM
- TGI (A498 renal): 15.6 µM
- TGI (MCF7 breast): 49.6 µM
- TGI (NCI-H226 lung): 36.2 µM
- TGI (OVCAR-3 ovarian): 10.9 µM
- TGI (MOLT-4 leukemia): 8.79 µM
- TGI (CCRF-CEM leukemia): 60.8 µM
- TGI (RPMI-8226 leukemia): 33.1 µM
- TGI (IGROV1 ovarian): > 100 µM
- TGI (NCI-H460 lung): 33 µM
- TGI (OVCAR-8 ovarian): 65.1 µM
- TGI (LOX IMVI melanoma): 31.9 µM
- TGI (SK-OV-3 ovarian): 24.3 µM
- TGI (A549 NSCLC): 32 µM
- TGI (SR leukemia): 8.27 µM
- TGI (SK-MEL-5 melanoma): 18.7 µM
- TGI (HS 578T breast): 42.1 µM
- TGI (HCT-116 colon): 24 µM

SMILES: O=C(c1ccccc1)C(CN1CCOCC1)c1ccccc1 (stereo not given)
- GI50 (NCI/ADR-RES ovarian): 2.83 µM
- TGI (NCI/ADR-RES ovarian): 14.1 µM
- GI50 (COLO 205 colon): 1.76 µM
- TGI (COLO 205 colon): 3.32 µM
- GI50 (HL-60(TB) leukemia): 1.95 µM
- TGI (HL-60(TB) leukemia): 5.57 µM
- GI50 (UACC-257 melanoma): 1.37 µM
- TGI (UACC-257 melanoma): 3.13 µM
- GI50 (HOP-92 NSCLC): 1.33 µM
- TGI (HOP-92 NSCLC): 2.87 µM
- GI50 (HOP-62 NSCLC): 6.5 µM
- TGI (HOP-62 NSCLC): 19.7 µM
- GI50 (UO-31 renal): 1.41 µM
- TGI (UO-31 renal): 3.02 µM
- GI50 (HCC-2998 colon): 4.36 µM
- TGI (HCC-2998 colon): 15.6 µM
- GI50 (BT-549 breast): 1.48 µM
- TGI (BT-549 breast): 3.77 µM
- GI50 (OVCAR-5 ovarian): 2.65 µM
- TGI (OVCAR-5 ovarian): 5.3 µM
- GI50 (KM12 colon): 1.8 µM
- TGI (KM12 colon): 3.73 µM
- GI50 (SN12C renal): 1.73 µM
- TGI (SN12C renal): 4.47 µM
- GI50 (SK-MEL-2 melanoma): 1.67 µM
- TGI (SK-MEL-2 melanoma): 3.39 µM
- GI50 (SF-268 CNS): 1.65 µM
- TGI (SF-268 CNS): 3.47 µM
- GI50 (MDA-MB-435): 1.35 µM
- TGI (MDA-MB-435): 3.36 µM
- GI50 (M14 melanoma): 1.66 µM
- TGI (M14 melanoma): 3.57 µM
- GI50 (EKVX NSCLC): 3.32 µM
- TGI (EKVX NSCLC): 16.9 µM
- GI50 (MDA-MB-231 breast): 1.83 µM
- TGI (MDA-MB-231 breast): 5.05 µM
- GI50 (TK-10 renal): 1.19 µM
- TGI (TK-10 renal): 2.44 µM
- GI50 (K-562 leukemia): 0.355 µM
- TGI (K-562 leukemia): 3.38 µM
- GI50 (SW-620 colon): 0.372 µM
- TGI (SW-620 colon): 1.28 µM
- GI50 (HCT-15 colon): 0.641 µM
- TGI (HCT-15 colon): 2.21 µM
- GI50 (CAKI-1 renal): 0.565 µM
- TGI (CAKI-1 renal): 1.95 µM
- GI50 (PC-3 prostate): 2.93 µM
- TGI (PC-3 prostate): 13.3 µM
- GI50 (HT29 colon): 0.501 µM
- TGI (HT29 colon): 1.89 µM
- GI50 (SF-295 CNS): 2.67 µM
- TGI (SF-295 CNS): 10.4 µM
- GI50 (MALME-3M melanoma): 1.79 µM
- TGI (MALME-3M melanoma): 4.03 µM
- GI50 (NCI-H23 lung): 2.79 µM
- TGI (NCI-H23 lung): 12.3 µM
- GI50 (SNB-19 CNS): 3.76 µM
- TGI (SNB-19 CNS): 15.6 µM
- GI50 (T-47D breast): 3 µM
- TGI (T-47D breast): 9.87 µM
- GI50 (NCI-H522 lung): 0.255 µM
- TGI (NCI-H522 lung): 0.995 µM
- GI50 (ACHN renal): 1.3 µM
- TGI (ACHN renal): 2.71 µM
- GI50 (RXF 393 renal): 1.8 µM
- TGI (RXF 393 renal): 3.36 µM
- GI50 (DU-145 prostate): 1.16 µM
- TGI (DU-145 prostate): 2.44 µM
- GI50 (U251 CNS): 1.71 µM
- TGI (U251 CNS): 4.09 µM
- GI50 (786-0 renal): 2.72 µM
- TGI (786-0 renal): 6.93 µM
- GI50 (SF-539 CNS): 2.11 µM
- TGI (SF-539 CNS): 4.47 µM
- GI50 (UACC-62 melanoma): 1.71 µM
- TGI (UACC-62 melanoma): 4.21 µM
- GI50 (A498 renal): 2.49 µM
- TGI (A498 renal): 11.2 µM
- GI50 (MCF7 breast): 1.25 µM
- TGI (MCF7 breast): 2.66 µM
- GI50 (NCI-H226 lung): 2.79 µM
- TGI (NCI-H226 lung): 9.33 µM
- GI50 (OVCAR-3 ovarian): 0.465 µM
- TGI (OVCAR-3 ovarian): 1.66 µM
- GI50 (MOLT-4 leukemia): 2.24 µM
- TGI (MOLT-4 leukemia): 6.43 µM
- GI50 (SK-MEL-28 melanoma): 1.76 µM
- TGI (SK-MEL-28 melanoma): 3.35 µM
- GI50 (CCRF-CEM leukemia): 0.283 µM
- TGI (CCRF-CEM leukemia): 1.19 µM
- GI50 (RPMI-8226 leukemia): 0.793 µM
- TGI (RPMI-8226 leukemia): 4.74 µM
- GI50 (IGROV1 ovarian): 1.75 µM
- TGI (IGROV1 ovarian): 4.24 µM
- GI50 (NCI-H460 lung): 2.51 µM
- TGI (NCI-H460 lung): 7.76 µM
- GI50 (OVCAR-8 ovarian): 1.52 µM
- TGI (OVCAR-8 ovarian): 3.22 µM
- GI50 (LOX IMVI melanoma): 1.32 µM
- TGI (LOX IMVI melanoma): 3.19 µM
- GI50 (SK-OV-3 ovarian): 5.18 µM
- TGI (SK-OV-3 ovarian): 17.9 µM
- GI50 (A549 NSCLC): 3.94 µM
- TGI (A549 NSCLC): 14.9 µM
- GI50 (SR leukemia): 1.02 µM
- TGI (SR leukemia): 4.45 µM
- GI50 (OVCAR-4 ovarian): 3.88 µM
- TGI (OVCAR-4 ovarian): 19.3 µM
- GI50 (SK-MEL-5 melanoma): 1.76 µM
- TGI (SK-MEL-5 melanoma): 3.77 µM
- GI50 (HS 578T breast): 1.77 µM
- TGI (HS 578T breast): 8.37 µM
- GI50 (HCT-116 colon): 0.609 µM
- TGI (HCT-116 colon): 2.08 µM
- GI50 (SNB-75 CNS): 2.29 µM
- TGI (SNB-75 CNS): 12 µM
